How the values were obtained:
[1] = tested on: 14-3-3ε; details: pull-down and mass spectrometry; cited from earlier work
[2] = tested on: 14-3-3ε and FOXO3a interaction; details: cells expressing the 9J10 probe; cited from earlier work
[3] = molecular target: the molecule itself; assay: crystal structure

Row | Molecule | 14-3-3 proteins interacting with probe (pull-down, MS) [1] | Interaction between 14-3-3ε and FOXO3a in cells expressing the probe [2] | binding result [3]
1 | LNTRPGRRRNpSN [9J10] | 14-3-3ε is one among the abundant 14-3-3 proteins interacting with 9J10 | sharp reduction in the interaction between 14-3-3ε and FOXO3a | 
2 | 14-3-3εΔC (aa 1-232) (domain or fragment, human, UniProt P62258 1-232, looked up) MDDREDLVYQAKLAEQAERYDEMVESMKKVAGMDVELTVEERNLLSVAYKNVIGARRASWRIISSIEQKEENKGGEDKLKMIREYRQMVETELKLICCDILDVLDKHLIPAANTGESKVFYYKMKGDYHRYLAEFATGNDRKEAAENSLVAYKAASDIAMTELPPTHPIRLGLALNFSVFYYEILNSPDRACRLAKAAFDDAIAELDTLSEESYKDSTLIMQLLRDNLTLWT |  |  | binds

From publication PMC9301721 (ACS Omega, 2022)
